In patent US12616759B2, “Uses of labeled HSP90 inhibitors” (Sloan-Kettering Institute for Cancer Research, priority 2011, dated 2026):
Read-outs that look alike come from different tables or passages of the source.

Tests used:
[1] = tested on: breast cancer tumor specimens; experiment: ex vivo fresh tissue sections of breast cancer patient tumors, apoptosis; assay type: cell-based, human
Description: Test ex vivo the sensitivity of BC samples to PU-H71.
Ex vivo sensitivity examination: Immediately following surgical removal of the mastectomy specimen the tissue is transported to the Tissue Procurement Services (TPS) area of the Pathology suite. Once the lesion is located, tissue is harvested under sterile conditions. The specimen size removed for evaluation is typically 5-10 mm×5-10 mm. Every effort is made to sample the most viable area. Distant from the lesion, a specimen of equivalent size is removed representative of normal breast epithelial tissue. Both specimens are placed in minimal essential media (MEM) with 1% penicillin/streptomycin. A small portion of the lesion and the entire piece of normal breast epithelial tissue undergo a “snap” freeze for future molecular evaluation by WB. The remaining portion of the lesion (mastectomy) is processed for pathological evaluation. For every lesion pathology provides IHC for receptor status, proliferation markers, epithelial markers and one hematoxylin/eosin (H&E) stained slide accompanied by 10 unstained to be further assessed for non-standard biomarkers (e.g. pAKT, BclxL, HSP90 and Hsp70).
From preliminary analyses we have learned that fresh tissue slicing provides a quick and more efficient ex vivo method for HSP90 inhibition evaluation than primary cell isolation. In addition, it preserves the cancer cells in the endogenous environment of the surrounding tissue. This is important since the interaction between stromal cells and tumor cells is known to play a major role in cancer growth and progression. In this method, the tissue (i.e. lesion) is placed in a plastic mold and embedded in 6% agarose. The agarose-embedded tissue is then mounted on the stage of the Vibratome that is submersed in a chilled reservoir (for tissue preservation) containing MEM with 1% penicillin/streptomycin. The tissue is then sliced using metal blades producing serial sections of the lesion that are 200 μm thick. Each section (minus the surrounding agarose-embedding media) is immediately placed in a 24-well tissue culture plate containing MEM with 1% penicillin/streptomycin. From a 5 mm×5 mm piece of tissue approximately 25 sections are produced. This allows for replicate analyses of tissue sections treated with a minimum of 4 doses of the HSP90 inhibitor and one with vehicle only. Replicates can be assayed by both IHC as well as viability assays (automatic plate reader or cytospin preparation) once tissue section undergoes enzymatic dissociation by brief exposure to dispase.
To date, forty-two specimens encompassing all BC subtypes have been acquired. Out of these, nine were of receptor status negative. […] Treatment of triple negative infiltrating ductal carcinoma (IDC) with PU-H71 attained, in a dose-dependent manner, apoptosis of both the primary tumors and lymph node metastases.

MO-91 tumors = experiment: pharmacodynamic study in MO-91 xenografted tumors; assay type: in vivo, mice; conditions: post-administration of one dose
Protocol: Pharmacodynamic Study: Four- to 6-week-old nu/nu athymic female mice were obtained from Taconic Farms. Experiments were carried out under an Institutional Animal Care and Use Committee-approved protocol, and institutional guidelines for the proper and humane use of animals in research were followed. HEL and MO-91 cells were subcutaneously implanted in the right flank of mice using a 20-gauge needle and allowed to grow. Before administration, a solution of PU-H71-HCl was formulated in sterile PBS. For this assay, tumors were allowed to reach 6-8 mm in diameter before treatment. […] Tumors were homogenized and proteins analyzed by western blot as described above.

tumor HSP90 = conditions: for available HSP90 tumor sites occupied: 24 h
[2] = tested on: Akt, onco-proteins in MDA-MB-468 tumors; experiment: pharmacodynamic Western blot of MDA-MB-468 tumors; assay type: in vivo, mice
Protocol: Pharmacodynamic analyses. For protein analysis, tumors were homogenized in SDS lysis buffer (50 mM Tris, pH 7.4, 2% SDS) and subjected to Western blot analysis. Protein concentrations were determined using the BCA kit (Pierce) according to the manufacturer's instructions. Protein lysates (20-100 μg) were electrophoretically resolved by SDS/PAGE, transferred to nitrocellulose membrane, and probed with the indicated primary antibodies: Anti-Hsp90 from mouse (1:500, SPA-830; Stressgen), anti-Akt from rabbit (1:500, 9272; Cell Signaling), anti-phospho-Akt (Ser 473) from rabbit (1:500, 9271S; Cell Signaling), anti-PARP (p85 fragment) from rabbit (1:250, G7341; Promega). Membranes were then incubated with a 1:5,000 dilution of a peroxidase-conjugated corresponding secondary antibody. Equal loading of the protein samples was confirmed by parallel Western blots for β-actin (1:5,000, ab8227-50; Abcam). Detection was performed using the ECL Enhanced Chemiluminescence Detection System (Amersham Biosciences) according to the manufacturer's instructions.

HSP90 = assay type: binding
[3] = PU-H71 tumor concentration by LC-MS/MS; assay type: in vivo, mice; conditions: mouse, tumor (MDA-MB-468), read-out: actual tumor concentration by LC-MS/MS; for concentration at 24 h: 24 h after last dose
Description: LC-MS/MS analyses. […] Samples were reconstituted in mobile phase.

359 kinases = experiment: scanMAX kinase screen (Ambit); assay type: binding; conditions: 10 μM
[4] = PU-H71 tumor concentration predicted from [^124I]-PU-H71 PET (equation 1a, simulations); conditions: mouse, tumor (MDA-MB-468), 75 mg/kg
MDA-MB-468 tumors = experiment: as above
[5] = several HER2+, triple-negative and ER+ breast cancers
[6] = 5 mg/kg 3×week, 24 h after last dose

With `CC(C)NCCCn1c(Sc2cc3c(cc2I)OCO3)nc2c(N)ncnc21` [PU-H71] the “effect on normal and benign tissue” value ([1]; 48 hour exposure) was “remained unaltered”, the apoptosis ([1]; TNBC partly resistant group, 1-2.5 uM) was about 50% and the apoptosis ([1]; TNBC sensitive group, 1 uM) was 100%. For the same compound, the apoptosis ([1]; TNBC very sensitive group, 0.5 uM) was 100%, the apoptosis ([1]; resistant, PT #14) was “no apoptosis noted at any of the tested concentrations” and the “concentration inducing about 50% apoptosis” value [1, 5] was 0.05 µM. For the same compound, the “concentration inducing about 100% apoptosis” value [1, 5] was 0.5 µM, the “duration of apoptosis after one dose” value (MO-91 tumors) was 96 h and the “available HSP90 tumor sites occupied” value (tumor HSP90; 5 mg/kg) was 12.1%. The “available HSP90 tumor sites occupied” value (tumor HSP90; 25 mg/kg) was 57.7%, the “available HSP90 tumor sites occupied” value (tumor HSP90; 50 mg/kg) was 88.7% and the “available HSP90 tumor sites occupied” value (tumor HSP90; 75 mg/kg) was 92.7%. For the same compound, the “BMAX, maximum HSP90 per gram of tumor” value (tumor HSP90; 24 h post-injection, one gram of tumor) was 160.7×10^−3 nmols, the “BMAX as HSP90 molecules per gram of tumor” value (tumor HSP90; one gram of tumor) was 960×10^11 HSP90 molecules and the “Akt degradation, decrease” value [2, 6] was 57%. The “depletion of onco-proteins, level decrease” value ([2]; 1×week schedule, 24 h and 96 h after last dose) was 95%, the “fraction of total cellular HSP90 bound” value (HSP90) was “approximately 30%” and the concentration at 24 h ([3]; 5 mg/kg 3×week) was 520 ± 130 nM. For the same compound, the concentration at 24 h ([3]; 75 mg/kg 1×week) was 5530 ± 260 nM, the concentration at 96 h ([3]; 75 mg/kg 1×week, 96 h after last dose) was 3090 ± 1400 nM and the kinase hits (359 kinases) was “Only SNARK (NUAK family SNF1-like kinase 2) (red dot on the kinase tree) appears as a potential low affinity kinase hit”. It also gave a concentration at 24 h [4] of 5510 nM, a concentration at 72 h [4] of 2180 ± 1780 nM and a concentration at 96 h [4] of 2180 nM. For the same compound, the “tumor concentration of PU-H71” value (MDA-MB-468 tumors; 1 mg/kg, 48 h and beyond) was “less than 0.05 μM”, the “simulated tumor concentration at the time of sacrifice” value (MDA-MB-468 tumors; [6]) was 0.43 µM and the “[PU-H71tumor]avg” value (MDA-MB-468 tumors; 75 mg/kg, 1×week) was 2.88 µM. For the same compound, the “[PU-H71tumor]avg” value (MDA-MB-468 tumors; 75 mg/kg, 2×week) was 5.41 µM, the “[PU-H71tumor]avg” value (MDA-MB-468 tumors; 75 mg/kg, 3×week) was 7.45 µM and the “tumor concentration from PET or biodistribution studies” value (MDA-MB-468 tumors; 75 mg/kg, 24 h) was 5.51 ± 1.78 µM.
